The values below come from US20130317052A1, “QUINOLINE DERIVATIVE COMPOUND, METHOD FOR PREPARING SAME, AND PHARMACEUTICAL COMPOSITION CONTAINING SAME” (Dong-A ST Co., Ltd., priority 2010, published 2013).

In one experiment the target is T1, serotonin-1B receptor (Rattus norvegicus, UniProt P28564).
T1 construct: cell membranes of the cerebral cortex excised from male Winstar rats; from tissue; host or cells: rat cerebral cortex membranes
The experiment in a line: Assay for affinity for serotonin-1B receptor: competitive inhibition of [125I]cyanopindolol binding to rat cerebral cortex membranes. The note with it: 10 μM compound, 10 pM [125I]cyanopindolol, mean of two experiments. How it is done:
Compounds of the present invention were examined for affinity for the serotonin-1B receptor which can exert a relaxation effect on the stomach to relieve impaired gastric accommodation of functional dyspepsia patients in response to an agonist.
In a Tris-HCl buffer (50 mM Tris-HCl, pH 7.4, 120 mM NaCl, 5 mM KCl, 2 mM CaCl2, 1 mM MgCl2), 4 mg of cell membranes of the cerebral cortex excised from male Winstar rats, each weighing 175±25 g, was incubated at 37° C. for 1.5 hrs with 10 pM of ^125[I] cyanopindolol (PerkinElmer, 100 μCi) and 10 μM of the compound of interest of the present invention per well. After completion of the incubation, the incubation mixture was filtered through Whatman GF/B filter (unifilter-96, Lot: 6005177, PerkinElmer) to separate ligand-bound receptors. These bound receptors were washed three times with 5 mL of a Tris-HCl buffer. Then, 10 mL of a scintillation cocktail (Lot: 03999, Fluka) was added and reacted for 16 hrs or longer to measure radiation activity using a beta-counter (Packcard) in order to calculate the quantity of ^125[I] cyanopindolol bound to the receptor.
Meanwhile, 10 μM of serotonin (H9523, Sigma) was incubated in the presence of 10 pM of ^125[I] cyanopindolol to determine a nonspecific binding value. The experiment was independently carried out twice, and receptor affinity was calculated using the following Equation 2. […]

A short description of experiment [1]: Gastric emptying effect on normal rat, semi-solid test meal. It counts as in vivo, Sprague-Dawley rats. Conditions: for Gastric Emptying (%): 45 min before test meal, stomach weighed 35 min after meal. The procedure:
Gastric emptying activity of the compounds of the present invention was examined in the following experiment.
Sprague-Dawley rats, each weighing 200˜250 g, were acclimated for one week at a temperature of 22˜24° C. and a humidity of 60-80% while a standard diet and water were provided, and then were divided into groups according to weight. Thereafter, they were starved for 24 hrs before an experiment while water was provided. From 3 hrs before the experiment, no more water was provided. […] For control 1, only 1 mL of a 3% hydroxypropylmethyl cellulose solution was used while sisapride was orally administered at a dose of 1 mg/kg in 1 mL of a 3% hydroxypropylmethyl cellulose to control 2.
After 45 min, a semi-solid test meal prepared by mashing feeds in water, was orally administered in an amount of 2 mL to each rat. After 35 min, the SD rats were killed, and the stomach containing the semi-solid test meal was excised, and weighed. Subsequently, the stomach was washed with distilled water to remove the gut content, dried, and weighed again, in order to calculate the weight of the semi-solid test meal left in the gut.
Gastric Emptying(%)=[1−(weight of semi-solid test meal left in gut/weight of semi-solid test meal at 0-time)]×100 [Equation 3]
(weight of semi-solid test meal at 0-time means weight of the semi-solid test meal left in the rat killed immediately after the administration of the semi-solid test meal)

For experiment [2], the target named is T2, dopamine-D2 receptor (human dopamine D2s) (Homo sapiens, UniProt P14416).
T2 construct: expressed in transfected cells; host or cells: CHO cells
T2 sequence (P14416 1-414 isoform P14416-2): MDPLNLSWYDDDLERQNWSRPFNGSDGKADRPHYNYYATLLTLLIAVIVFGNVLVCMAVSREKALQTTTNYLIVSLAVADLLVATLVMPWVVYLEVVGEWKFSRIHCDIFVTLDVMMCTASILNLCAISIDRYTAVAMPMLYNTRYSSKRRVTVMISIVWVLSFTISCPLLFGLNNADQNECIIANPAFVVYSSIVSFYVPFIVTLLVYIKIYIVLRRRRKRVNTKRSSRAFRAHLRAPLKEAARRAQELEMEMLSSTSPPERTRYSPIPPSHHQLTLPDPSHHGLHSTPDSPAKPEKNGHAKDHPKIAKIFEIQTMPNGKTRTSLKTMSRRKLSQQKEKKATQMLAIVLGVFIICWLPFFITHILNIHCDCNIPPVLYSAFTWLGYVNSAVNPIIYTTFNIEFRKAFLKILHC
The experiment in a line: Assay for affinity for dopamine receptor: competitive inhibition of [3H]spiperone binding. The note with it: 10 μM compound; 0.16 nM [3H]spiperone; CHO cells transfected with human dopamine D2s gene; mean of two experiments. The procedure: Affinity of the compounds of the present invention for the dopamine-D2 receptor, which is found in the wall of the gastric tract of mammals and inhibits gastrointestinal motility, was determined by measuring competitive inhibition against the binding to the receptor of a radio-labeled ligand which is known for its affinity for the receptor. In this regard, the experiment was performed according to the method described in [Heys G et al. Mol Endocrinol. 6:920, 1992] and [Grandy D K et al. Proc Natl Acad Sci USA. 86:9762, 1989].
In tris-HCl buffer ([…], pH 7.4, 120 mM NaCl, 5 mM KCl, 2 mM CaCl2, 1 mM MgCl2) 150 μg of Chinese hamster ovary (CHO) cells transfected with a human dopamine D2s gene were incubated at 25° C. for 120 min with 0.16 nM of tritium Spiperone (^3[H] Spiperon [NEN, 250 μCi]) and 10 μM of the compound of interest of the present invention. After completion of the reaction, the reaction mixture was filtered through Whatman GF/B filter (unifilter-96, Lot: 6005177, PerkinElmer) to separate ligand-bound receptors. These bound receptors were washed three times with a Tris-HCl buffer. Then 10 mL of a scintillation cocktail (Lot: 03999, Fluka) was added and reacted for 16 hrs or longer to measure radiation activity using a beta-counter (Packcard) in order to calculate the quantity of tritium spiperone bound to the receptor. Meanwhile, 10 μM of Haloperidol (H1512, Sigma) was incubated in the presence of 0.16 nM tritium Spiperone to determine a nonspecific binding value. The experiment was independently carried out twice, and receptor affinity was calculated using the following Equation 1.
Receptor Affinity(%)={(Total CPM−Nonspecific Binding CPM−CPM of tritium Spiperone remaining after addition of interest compound of the present invention)/(Total CPM−Nonspecific Binding CPM)}×100 Equation 1
(CPM: counter per minute)

T1 sequence (P28564 whole entry): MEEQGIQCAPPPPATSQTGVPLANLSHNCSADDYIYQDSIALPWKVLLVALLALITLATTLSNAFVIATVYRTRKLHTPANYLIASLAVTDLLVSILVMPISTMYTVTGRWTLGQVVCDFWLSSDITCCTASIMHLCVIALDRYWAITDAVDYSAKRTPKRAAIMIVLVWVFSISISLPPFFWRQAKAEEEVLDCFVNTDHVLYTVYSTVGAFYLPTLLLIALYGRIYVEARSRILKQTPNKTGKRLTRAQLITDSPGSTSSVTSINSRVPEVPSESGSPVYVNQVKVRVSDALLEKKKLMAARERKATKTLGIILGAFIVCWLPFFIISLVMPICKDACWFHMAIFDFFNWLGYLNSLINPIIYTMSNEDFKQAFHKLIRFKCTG

Regarding `COc1cc2c(cc1Oc1cc3c(cc1OC)-c1c(OC)c(OC)cc4ccnc(c14)C3=O)CCN1Cc3c(ccc(OC)c3OC)C[C@@H]21` [Compound of Example 1, (S)-1,2,10-Trimethoxy-9-(2,9,10-trimethoxy-5,8,13,13a-tetrahydro-6H-isoquino[3,2-a]isoquinolin-3-yloxy)-dibenzo[de,g]quinolin-7-one], the “Affinity (%)” value at serotonin-1B receptor is reported as 61%; in experiment [2], 91%. The “Gastric Emptying (%)” value in experiment [1] (10 μg/kg oral) was 62.3%. Also, the “increase of gastric emptying compared to control 1 (no drug)” value in experiment [1] (10 μg/kg oral, normal rat) is “roughly two-fold”.

Regarding `COc1cc2c(cc1Oc1cc3c(cc1OC)CC[n+]1cc4c(OC)c(OC)ccc4cc1-3)C[C@@H]1NCCc3cc(OC)c(OC)c-2c31` [Compound of Example 2, (S)-3,9,10-Trimethoxy-2-(1,2,10-trimethoxy-5,6,6a,7-tetrahydro-4H-dibenzo[de,g]quinolin-9-yloxy)-5,6-dihydro-isoquino[3,2-a]isoquinolinylium], the “Affinity (%)” value was 35% on serotonin-1B receptor and 25% in experiment [2]. In experiment [1] (10 μg/kg oral), the “Gastric Emptying (%)” value was 47.3%.

As to `COc1cc(N)c(Cl)cc1C(=O)NC1CCN(CCCOc2ccc(F)cc2)CC1OC` (stereo not drawn) [Control 2, sisapride, reference compound], in experiment [1] (10 mg/kg oral (Table 3)), the “Gastric Emptying (%)” value amounted to 68.9%.

As to `COc1ccc(C(=O)NCc2ccc(OCCN(C)C)cc2)cc1OC` [Itopride, reference compound], in experiment [2], the “Affinity (%)” value came to 75%.
